# Literature values as cited in patent US20220364053A1, “HUMAN CELLULAR MODEL FOR INVESTIGATING CORTICO-STRIATAL-MIDBRAIN NEURAL PATHWAYS” (The Board of Trustees of the Leland Stanford Junior …, priority 2019, published 2022).
# Legend:
# [1] = target: element-binding protein (CBP) (Homo sapiens, UniProt Q92793); settings: read-out: IC50, binds to element-binding protein (CBP)
# [2] = system: Wnt processing and secretion; settings: cell-free assay; read-out: IC50, inhibitor of Wnt processing and secretion
# [3] = system: Wnt-stimulated cellular responses
# [4] = target: T1, Porcn (Homo sapiens, UniProt Q9H237); settings: read-out: EC50, Porcn inhibitor
# T1 sequence (Q9H237 1-461): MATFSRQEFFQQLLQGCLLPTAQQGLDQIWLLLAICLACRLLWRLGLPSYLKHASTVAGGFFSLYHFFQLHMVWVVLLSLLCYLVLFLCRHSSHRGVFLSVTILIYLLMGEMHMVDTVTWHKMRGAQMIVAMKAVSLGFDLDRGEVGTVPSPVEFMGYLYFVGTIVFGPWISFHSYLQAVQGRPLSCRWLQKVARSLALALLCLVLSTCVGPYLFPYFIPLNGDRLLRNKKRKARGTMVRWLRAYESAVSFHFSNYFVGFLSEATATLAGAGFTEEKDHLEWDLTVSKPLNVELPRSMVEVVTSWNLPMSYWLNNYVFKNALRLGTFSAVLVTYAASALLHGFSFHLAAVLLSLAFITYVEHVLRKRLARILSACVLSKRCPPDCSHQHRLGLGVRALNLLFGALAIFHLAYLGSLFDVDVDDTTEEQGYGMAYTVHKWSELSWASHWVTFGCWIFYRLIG
# [5] = system: Wnt signaling; settings: TM3 cells; read-out: IC50, inhibits Wnt signaling
# [6] = target: Smo heptahelical domain (Homo sapiens, UniProt Q99835)
# [7] = target: T2, TNKS2 (Homo sapiens, UniProt Q9H2K2)
# T2 sequence (Q9H2K2 1-1166): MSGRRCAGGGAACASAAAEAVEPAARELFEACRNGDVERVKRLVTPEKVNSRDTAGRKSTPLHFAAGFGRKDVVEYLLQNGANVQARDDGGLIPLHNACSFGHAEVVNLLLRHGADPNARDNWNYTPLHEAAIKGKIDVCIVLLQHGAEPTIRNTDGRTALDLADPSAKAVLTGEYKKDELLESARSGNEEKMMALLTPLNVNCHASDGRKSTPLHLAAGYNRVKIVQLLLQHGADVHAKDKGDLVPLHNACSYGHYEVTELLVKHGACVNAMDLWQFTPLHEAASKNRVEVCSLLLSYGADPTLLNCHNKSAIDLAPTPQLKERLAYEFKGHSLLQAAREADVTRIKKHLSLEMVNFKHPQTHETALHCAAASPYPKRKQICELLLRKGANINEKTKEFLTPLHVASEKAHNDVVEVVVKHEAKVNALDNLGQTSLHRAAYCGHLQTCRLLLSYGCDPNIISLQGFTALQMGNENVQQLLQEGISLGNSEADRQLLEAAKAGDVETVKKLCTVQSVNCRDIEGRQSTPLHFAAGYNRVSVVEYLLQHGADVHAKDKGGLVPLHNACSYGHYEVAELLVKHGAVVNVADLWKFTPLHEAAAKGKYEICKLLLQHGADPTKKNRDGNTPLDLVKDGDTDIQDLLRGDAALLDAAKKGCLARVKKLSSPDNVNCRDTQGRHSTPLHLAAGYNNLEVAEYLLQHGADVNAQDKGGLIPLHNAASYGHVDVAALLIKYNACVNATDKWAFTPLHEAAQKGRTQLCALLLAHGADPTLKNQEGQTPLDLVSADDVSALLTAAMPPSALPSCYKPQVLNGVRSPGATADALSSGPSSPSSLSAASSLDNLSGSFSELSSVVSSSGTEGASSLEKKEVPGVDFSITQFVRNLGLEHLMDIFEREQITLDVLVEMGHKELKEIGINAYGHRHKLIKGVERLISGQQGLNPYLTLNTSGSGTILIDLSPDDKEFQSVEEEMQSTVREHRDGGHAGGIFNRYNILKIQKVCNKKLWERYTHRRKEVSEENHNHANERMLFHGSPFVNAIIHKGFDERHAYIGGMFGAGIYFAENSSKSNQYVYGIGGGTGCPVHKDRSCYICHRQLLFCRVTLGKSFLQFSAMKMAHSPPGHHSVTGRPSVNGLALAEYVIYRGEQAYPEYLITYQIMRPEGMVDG
# [8] = target: Wnt3A-mediated activation of a multimerized TCF-binding site driving luciferase; settings: HEK293 cells
# Sequence of element-binding protein (CBP) (Q92793 whole entry): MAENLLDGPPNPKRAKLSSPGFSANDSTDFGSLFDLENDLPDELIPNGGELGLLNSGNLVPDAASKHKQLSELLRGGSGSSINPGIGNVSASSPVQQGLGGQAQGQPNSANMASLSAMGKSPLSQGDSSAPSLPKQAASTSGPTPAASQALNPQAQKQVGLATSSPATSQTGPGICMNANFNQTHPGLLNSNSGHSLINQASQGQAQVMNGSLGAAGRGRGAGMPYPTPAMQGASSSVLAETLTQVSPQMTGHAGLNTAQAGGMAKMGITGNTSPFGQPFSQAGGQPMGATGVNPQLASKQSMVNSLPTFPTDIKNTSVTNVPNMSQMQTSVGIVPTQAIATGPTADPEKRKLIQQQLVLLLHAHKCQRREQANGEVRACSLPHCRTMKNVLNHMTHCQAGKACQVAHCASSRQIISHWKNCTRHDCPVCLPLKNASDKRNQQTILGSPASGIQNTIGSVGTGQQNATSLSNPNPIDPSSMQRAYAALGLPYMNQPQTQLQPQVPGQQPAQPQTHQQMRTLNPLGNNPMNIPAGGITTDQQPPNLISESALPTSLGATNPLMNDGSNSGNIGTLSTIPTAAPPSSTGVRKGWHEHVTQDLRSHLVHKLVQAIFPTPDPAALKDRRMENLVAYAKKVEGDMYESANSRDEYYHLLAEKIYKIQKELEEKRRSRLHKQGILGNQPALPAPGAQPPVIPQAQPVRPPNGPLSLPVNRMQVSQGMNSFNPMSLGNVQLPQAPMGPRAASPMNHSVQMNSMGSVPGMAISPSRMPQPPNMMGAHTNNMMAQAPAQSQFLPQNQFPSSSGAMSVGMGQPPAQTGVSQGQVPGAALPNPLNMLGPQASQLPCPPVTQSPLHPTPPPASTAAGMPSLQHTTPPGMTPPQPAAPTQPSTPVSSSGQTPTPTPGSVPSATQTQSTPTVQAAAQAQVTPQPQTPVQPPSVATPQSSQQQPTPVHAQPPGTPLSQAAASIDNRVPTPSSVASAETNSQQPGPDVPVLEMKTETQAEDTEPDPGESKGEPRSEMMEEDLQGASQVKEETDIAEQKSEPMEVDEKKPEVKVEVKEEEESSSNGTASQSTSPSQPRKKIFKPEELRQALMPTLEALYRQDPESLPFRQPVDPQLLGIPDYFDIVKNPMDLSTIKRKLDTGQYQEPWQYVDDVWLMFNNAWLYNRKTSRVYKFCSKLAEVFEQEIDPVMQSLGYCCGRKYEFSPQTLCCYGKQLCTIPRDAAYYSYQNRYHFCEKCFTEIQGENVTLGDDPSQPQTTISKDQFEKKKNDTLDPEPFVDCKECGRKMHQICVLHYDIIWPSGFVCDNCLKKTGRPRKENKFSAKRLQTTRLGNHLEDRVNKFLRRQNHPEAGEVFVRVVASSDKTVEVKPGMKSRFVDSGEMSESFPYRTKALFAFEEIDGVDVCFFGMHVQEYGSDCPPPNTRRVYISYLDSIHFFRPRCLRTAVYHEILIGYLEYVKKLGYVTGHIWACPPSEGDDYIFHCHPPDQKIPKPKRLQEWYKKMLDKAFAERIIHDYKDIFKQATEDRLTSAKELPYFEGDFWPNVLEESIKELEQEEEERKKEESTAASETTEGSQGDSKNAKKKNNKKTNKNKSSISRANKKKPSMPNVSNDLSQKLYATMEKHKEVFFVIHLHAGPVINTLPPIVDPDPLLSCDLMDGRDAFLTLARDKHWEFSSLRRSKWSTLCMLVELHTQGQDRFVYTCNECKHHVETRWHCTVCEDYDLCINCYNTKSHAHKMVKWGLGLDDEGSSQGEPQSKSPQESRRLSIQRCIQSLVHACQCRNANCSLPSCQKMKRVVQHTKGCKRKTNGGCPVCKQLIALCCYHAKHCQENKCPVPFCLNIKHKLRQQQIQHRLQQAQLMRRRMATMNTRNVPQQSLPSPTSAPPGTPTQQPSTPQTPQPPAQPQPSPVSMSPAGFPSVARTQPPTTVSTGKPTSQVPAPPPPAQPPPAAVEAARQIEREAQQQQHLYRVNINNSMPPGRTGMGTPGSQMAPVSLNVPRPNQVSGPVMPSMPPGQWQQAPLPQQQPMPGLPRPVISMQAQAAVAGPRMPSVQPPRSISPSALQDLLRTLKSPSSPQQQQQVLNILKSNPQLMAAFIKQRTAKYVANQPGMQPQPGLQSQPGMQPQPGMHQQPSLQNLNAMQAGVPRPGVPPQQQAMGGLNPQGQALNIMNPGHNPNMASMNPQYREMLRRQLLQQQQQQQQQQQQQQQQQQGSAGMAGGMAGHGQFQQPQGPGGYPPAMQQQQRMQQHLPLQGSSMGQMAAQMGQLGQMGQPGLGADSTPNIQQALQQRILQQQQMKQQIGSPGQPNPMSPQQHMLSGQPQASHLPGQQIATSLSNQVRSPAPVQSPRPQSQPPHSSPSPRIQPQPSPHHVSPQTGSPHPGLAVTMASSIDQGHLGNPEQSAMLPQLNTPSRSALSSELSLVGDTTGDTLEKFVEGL
# Sequence of Smo heptahelical domain (Q99835 28-787): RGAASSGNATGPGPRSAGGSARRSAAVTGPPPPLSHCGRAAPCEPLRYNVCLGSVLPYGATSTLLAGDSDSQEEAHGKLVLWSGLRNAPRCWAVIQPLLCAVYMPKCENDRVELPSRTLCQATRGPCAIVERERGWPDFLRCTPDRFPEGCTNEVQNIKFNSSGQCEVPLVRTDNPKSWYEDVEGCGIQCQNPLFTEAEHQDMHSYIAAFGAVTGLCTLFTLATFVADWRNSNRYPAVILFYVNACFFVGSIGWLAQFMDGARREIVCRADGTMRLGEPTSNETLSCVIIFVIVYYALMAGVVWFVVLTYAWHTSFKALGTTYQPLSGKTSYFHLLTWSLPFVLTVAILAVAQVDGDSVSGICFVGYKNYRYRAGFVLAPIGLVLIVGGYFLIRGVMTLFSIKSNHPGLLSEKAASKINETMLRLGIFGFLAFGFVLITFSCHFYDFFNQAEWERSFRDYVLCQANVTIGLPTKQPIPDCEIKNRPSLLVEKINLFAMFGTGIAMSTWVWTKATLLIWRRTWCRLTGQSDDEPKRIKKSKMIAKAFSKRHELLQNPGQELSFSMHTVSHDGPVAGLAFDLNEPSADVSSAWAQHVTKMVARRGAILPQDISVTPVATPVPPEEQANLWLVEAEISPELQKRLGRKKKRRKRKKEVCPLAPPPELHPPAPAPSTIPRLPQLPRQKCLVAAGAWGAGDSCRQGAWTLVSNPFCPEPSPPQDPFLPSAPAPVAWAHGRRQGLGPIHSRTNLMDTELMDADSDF
smiles,measurement,setting,value
O=C1[C@H](Cc2ccc(O)cc2)N2C(=O)CCN(C(=O)NCc3ccccc3)[C@H]2CN1Cc1cccc2ccccc12 [ICG-001],IC50,[1],3000 nM
Cc1ccc2nc(NC(=O)CSc3nc4c(c(=O)n3-c3ccccc3)SCC4)sc2c1 [IWP-2],IC50,[2],27 nM
same,effect against Wnt-stimulated cellular responses,[3],no effect
O=C(CSc1nc2c(c(=O)n1-c1ccccc1)SCC2)Nc1ccc(-c2ccccc2)cn1 [IWP-L6],EC50,[4],0.5 nM
Cc1cc(-c2ncc(CC(=O)Nc3ccc(-c4cnccn4)cn3)cc2C)ccn1 [LGK-974],IC50,[5],0.4 nM
CNC1CCC(N(Cc2cccc(-c3ccncc3)c2)C(=O)c2sc3ccccc3c2Cl)CC1 (centres unmarked) [SAG],Kd,[6],59 nM
COc1ccc(-n2c(SCCCN3C(=O)c4cccc5cccc(c45)C3=O)nnc2-c2ccncc2)cc1 [WIKI4],IC50,[7],15 nM
Cc1cc(-c2ccc(CC(=O)Nc3ccc(-c4cccnc4)cc3)cc2)ccn1 [Wnt-C59],IC50,[8],74000 nM
